What is called Ki is a measure of affinity in units of concentration, obtained from inhibition or displacement. Read a high Ki as lower affinity.

“And” between values parts separate entries of the source, which are not always exact repeats. Equal values may be shown once.

The target of the test is Gastrin/cholecystokinin type B receptor (Cavia porcellus). Briefly: In vitro inhibition of binding of [3H]pCCK-8 against Cholecystokinin type B receptor of guinea pig cerebral cortex membranes.
For `CC(C)(C)CCN1C(=O)C(NC(=O)Nc2ccccc2)C(=O)N(c2ccccc2)c2ccccc21` (stereo not given), the Ki was determined as 0.676 nM.

`O=C(O)CCCOc1ccc(NC(=O)NC2C(=O)N(CC34C[C@H]5C[C@@H](C3)C[C@@H](C4)C5)c3ccccc3N(c3ccccc3)C2=O)cc1` (stereo not given in full) showed a Ki of 3.8 nM. Against the preceding compound, the Ki is about 5.6-fold higher.

Compound `O=C(Nc1ccccc1)NC1C(=O)N(c2ccccc2)c2ccccc2N(C2CC3CCC2C3)C1=O` (stereo not given) came in with a Ki of 1.5 nM.

As for `CC(O)C(O)Nc1cccc(NC(=O)NC2C(=O)N(CC34C[C@H]5C[C@@H](C3)C[C@@H](C4)C5)c3ccccc3N(c3ccccc3)C2=O)c1` (stereo not given in full), the Ki was 1.3 nM and 0.676 nM.

On to `CN(C)c1ccc(NC(=O)NC2C(=O)N(CCC3CCCC3)c3ccccc3N(c3ccccc3F)C2=O)cc1` (stereo not given), for which affinity was put at a Ki of 4.7 nM. This lies in the single-digit nanomolar range.

Regarding `O=C(Nc1cccc(O)c1)NC1C(=O)N(CC23C[C@H]4C[C@@H](C2)C[C@@H](C3)C4)c2ccccc2N(c2ccccc2)C1=O` (stereo not given in full), the affinity corresponds to a Ki of 0.575 nM.

The compound `Nc1cccc(NC(=O)NC2C(=O)N(CC34C[C@H]5C[C@@H](C3)C[C@@H](C4)C5)c3ccccc3N(c3ccccc3)C2=O)c1` (stereo not given in full) had an inhibition constant Ki of 0.295 nM.

Compound `CN(C)c1cccc(NC(=O)NC2C(=O)N(CCC34C[C@H]5C[C@@H](C3)C[C@@H](C4)C5)c3ccccc3N(c3ccccc3)C2=O)c1` (stereo not given in full) yielded an inhibitory constant (Ki) of 13 nM.

Consider `O=C(Nc1ccccc1)NC1C(=O)N(CCc2ccccc2)c2ccccc2N(c2ccccc2)C1=O` (stereo not given), for which the Ki turned out to be 8.3 nM.

The compound `O=C(Nc1cccc(Cl)c1)NC1C(=O)N(c2ccccc2)c2ccccc2N(C2CC3CCC2C3)C1=O` (stereo not given) had a Ki of 1.7 nM.

Compound `CC(C)CC(C)N1C(=O)C(NC(=O)Nc2ccccc2)C(=O)N(c2ccccc2)c2ccccc21` (stereo not given) displayed an inhibitory constant (Ki) of 2.1 nM.

For the compound `CC(C)CCN1C(=O)C(NC(=O)Nc2cccc(N(C)C)c2)C(=O)N(c2ccccc2F)c2ccccc21` (stereo not given), the inhibitory constant (Ki) was 0.209 nM and 1.9 nM and 0.251 nM.

On to `O=C(Nc1cccc(C(=O)OCCN2CCOCC2)c1)NC1C(=O)N(CC23C[C@H]4C[C@@H](C2)C[C@@H](C3)C4)c2ccccc2N(c2ccccc2)C1=O` (stereo not given in full), for which affinity was put at a Ki of 0.562 nM.

`CC(C)(C)CCN1C(=O)C(NC(=O)Nc2ccccc2)C(=O)N(c2ccccc2F)c2ccccc21` (stereo not given) returned a Ki of 0.955 nM.

As for `CN(C)c1cccc(NC(=O)NC2C(=O)N(CC34C[C@H]5C[C@@H](C3)C[C@@H](C4)C5)c3ccccc3N(c3ccccc3)C2=O)c1` (stereo not given in full), the Ki turned out to be 1.1 nM.

`CCCCN1C(=O)C(NC(=O)Nc2ccccc2)C(=O)N(c2ccccc2)c2ccccc21` (stereo not given) gave a Ki of 6.2 nM.

Consider `CC(C)Cn1nnc(-c2cccc(NC(=O)NC3C(=O)N(CCC(C)(C)C)c4ccccc4N(c4ccccc4)C3=O)c2)n1` (stereo not given), for which the affinity corresponds to a Ki of 2.5 nM.

Regarding `O=C(Nc1cccc([N+](=O)[O-])c1)NC1C(=O)N(CC23C[C@H]4C[C@@H](C2)C[C@@H](C3)C4)c2ccccc2N(c2ccccc2)C1=O` (stereo not given in full), the inhibition constant Ki was found to be 1.9 nM.

On to `O=C(Nc1ccc(O)cc1)NC1C(=O)N(CC23C[C@H]4C[C@@H](C2)C[C@@H](C3)C4)c2ccccc2N(c2ccccc2)C1=O` (stereo not given in full), for which the affinity corresponds to a Ki of 0.661 nM. Against the preceding compound, the Ki is about 2.9-fold lower.

Turning to `CC(C)(C)CCN1C(=O)C(NC(=O)Nc2cccc(OC(F)(F)F)c2)C(=O)N(c2ccccc2)c2ccccc21` (stereo not given), the inhibition constant (Ki) was 2.9 nM.

In turn, `O=C(Nc1cccc(C(=O)O)c1)NC1C(=O)N(CC23C[C@H]4C[C@@H](C2)C[C@@H](C3)C4)c2ccccc2N(c2ccccc2)C1=O` (stereo not given in full) gave a Ki of 0.977 nM.

On to `O=C(Nc1ccc(Br)cc1)NC1C(=O)N(CC23C[C@H]4C[C@@H](C2)C[C@@H](C3)C4)c2ccccc2N(c2ccccc2)C1=O` (stereo not given in full), for which the affinity corresponds to a Ki of 1.4 nM. This Ki and that of the compound before are within 1.5-fold of each other.

`CN(C)c1cccc(NC(=O)NC2C(=O)N(CCC(C)(C)C)c3ccccc3N(c3ccccc3F)C2=O)c1` (stereo not given) came in with a Ki of 0.603 nM.

Regarding `CSc1cccc(NC(=O)NC2C(=O)N(CCC34C[C@H]5C[C@@H](C3)C[C@@H](C4)C5)c3ccccc3N(c3ccccc3)C2=O)c1` (stereo not given in full), the affinity corresponds to a Ki of 60 nM.

As to `O=C(Nc1cccc(C2N=NN=N2)c1)NC1C(=O)N(CCC2CCCC2)c2ccccc2N(c2ccccc2F)C1=O` (stereo not given), the Ki stood at 0.224 nM.

On to `O=C(Nc1ccccc1)NC1C(=O)N(CCC23C[C@H]4C[C@@H](C2)C[C@@H](C3)C4)c2ccccc2N(c2ccccc2)C1=O` (stereo not given in full), for which the affinity, expressed as Ki, was 34 nM.

`CC(C)(C1CCCC1)N1C(=O)C(NC(=O)Nc2cccc(C3N=NN=N3)c2)C(=O)N(c2ccccc2)c2ccccc21` (stereo not given) registered a Ki of 1.5 nM.

`CCOC(=O)CCCOc1ccc(NC(=O)NC2C(=O)N(CC34C[C@H]5C[C@@H](C3)C[C@@H](C4)C5)c3ccccc3N(c3ccccc3)C2=O)cc1` (stereo not given in full) registered a Ki of 5.2 nM.

`CSc1cccc(NC(=O)NC2C(=O)N(CCC(C)(C)C)c3ccccc3N(c3ccccc3F)C2=O)c1` (stereo not given) registered a Ki of 0.724 nM. This Ki is about 7.2-fold lower than that of the compound before.

As for `CN(C)c1cccc(NC(=O)NC2C(=O)N(c3ccccc3)c3ccccc3N(C3[C@H]4C[C@@H]5C[C@@H](C[C@H]3C5)C4)C2=O)c1` (stereo not given in full), the Ki is 2.3 nM.

As to `CSc1cccc(NC(=O)NC2C(=O)N(CCC(C)C)c3ccccc3N(c3ccccc3F)C2=O)c1` (stereo not given), affinity was put at a Ki of 0.331 nM.

For the compound `CC(C)(C)CCN1C(=O)C(NC(=O)Nc2cccc(C#N)c2)C(=O)N(c2ccccc2)c2ccccc21` (stereo not given), the Ki was 0.646 nM. This Ki lies about 2-fold higher than the previous one.

In the case of `CN(C)c1cccc(NC(=O)NC2C(=O)N(CCC3CCCC3)c3ccccc3N(c3ccccc3F)C2=O)c1` (stereo not given), the Ki was 0.676 nM.

`CSc1cccc(NC(=O)NC2C(=O)N(CCC(C)(C)C)c3ccccc3N(c3ccccc3)C2=O)c1` (stereo not given): the inhibition constant Ki came to 0.49 nM.

In turn, `O=C(Nc1cccc(CO)c1)NC1C(=O)N(CC23C[C@H]4C[C@@H](C2)C[C@@H](C3)C4)c2ccccc2N(c2ccccc2)C1=O` (stereo not given in full) returned an inhibition constant Ki of 0.178 nM.

Consider `CC(C)C(C)CN1C(=O)C(NC(=O)Nc2ccccc2)C(=O)N(c2ccccc2)c2ccccc21` (stereo not given), for which affinity was put at a Ki of 1.1 nM.

As for `O=C(Nc1ccccc1)NC1C(=O)N(CC2[C@H]3C[C@@H]4C[C@@H](C[C@H]2C4)C3)c2ccccc2N(c2ccccc2)C1=O` (stereo not given in full), affinity was put at a Ki of 1.9 nM.

The compound `CN(C)c1cccc(NC(=O)NC2C(=O)N(c3ccccc3)c3ccccc3N(C3CC4CCC3C4)C2=O)c1` (stereo not given) registered a Ki of 1 nM.

In the case of `O=Cc1cccc(NC(=O)NC2C(=O)N(CC34C[C@H]5C[C@@H](C3)C[C@@H](C4)C5)c3ccccc3N(c3ccccc3)C2=O)c1` (stereo not given in full), the affinity corresponds to a Ki of 0.955 nM.

Regarding `CC(C)CCN1C(=O)C(NC(=O)Nc2ccccc2)C(=O)N(c2ccccc2F)c2ccccc21` (stereo not given), the affinity corresponds to a Ki of 7.8 nM.

Turning to `O=C(Nc1ccccc1)NC1C(=O)N(CCC2CCCC2)c2ccccc2N(c2ccccc2F)C1=O` (stereo not given), the affinity corresponds to a Ki of 0.724 nM.

As for `O=C(Nc1cccc(C2N=NN=N2)c1)NC1C(=O)N(c2ccccc2)c2ccccc2N(C2[C@H]3C[C@@H]4C[C@@H](C[C@H]2C4)C3)C1=O` (stereo not given in full), the Ki came out at 2.1 nM.

In turn, `CCOC(=O)c1cccc(NC(=O)NC2C(=O)N(CC34C[C@H]5C[C@@H](C3)C[C@@H](C4)C5)c3ccccc3N(c3ccccc3)C2=O)c1` (stereo not given in full) returned a Ki of 3 nM.

On to `CC(C)(C)CCN1C(=O)C(NC(=O)Nc2cccc(C3N=NN=N3)c2)C(=O)N(c2ccccc2)c2ccccc21` (stereo not given), for which the Ki was found to be 0.288 nM.

Compound `CC(=O)Nc1cccc(NC(=O)NC2C(=O)N(CC34C[C@H]5C[C@@H](C3)C[C@@H](C4)C5)c3ccccc3N(c3ccccc3)C2=O)c1` (stereo not given in full) registered a Ki of 1.3 nM.

The record behind these values is BindingDB's records for doi:10.1021/jm990967h (Glaxo Wellcome Medicines Research Centre, 2000).
